Reference: US12091405B2, “Substituted pyrazole compounds as indoleamine 2,3-dioxygenase inhibitors” (Merck Sharp & Dohme LLC, priority 2018, dated 2024)
pIC50: −log10 of the molar value.

What was measured:
IDO1 [1] = biological target: T1, IDO1 (Homo sapiens, UniProt P14902); assay: IDO1 Human Whole Blood Assay; format: cell-based; parameters: Human whole blood was drawn in sodium heparin coated tubes from healthy internal donors; from tissue; host or cells: human whole blood from healthy donors, stimulated with LPS and IFNγ; conditions: LPS and IFNγ 100 ng/mL, overnight (18 h), kynurenine by LC/MS/MS
T1 sequence (P14902 whole entry): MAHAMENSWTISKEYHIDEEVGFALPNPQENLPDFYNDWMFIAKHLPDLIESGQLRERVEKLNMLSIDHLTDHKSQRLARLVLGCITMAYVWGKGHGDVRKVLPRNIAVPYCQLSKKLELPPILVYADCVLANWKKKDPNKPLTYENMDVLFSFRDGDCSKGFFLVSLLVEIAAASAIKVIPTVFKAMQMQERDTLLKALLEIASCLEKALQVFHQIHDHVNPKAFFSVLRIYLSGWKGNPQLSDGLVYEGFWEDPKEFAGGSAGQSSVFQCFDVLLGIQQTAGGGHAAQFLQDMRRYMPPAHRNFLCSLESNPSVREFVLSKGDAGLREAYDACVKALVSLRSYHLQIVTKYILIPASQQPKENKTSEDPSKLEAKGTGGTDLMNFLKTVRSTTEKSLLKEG
Procedure: IDO1 Human Whole Blood Assay
Compounds to be tested were serially diluted in ten 3-fold steps in DMSO starting from 10 mM. 3 μL of compound dilutions or DMSO alone were then dispensed from the dilution plate into a polypropylene 96-well assay plate containing 97 μL of RPMI medium using an Echo 555 acoustic liquid handler (Labcyte). LPS and IFNγ was prepared in RPMI medium to a 10× of final conc. (1000 ng/mL), final concentration is 100 ng/mL.
Human whole blood was drawn in sodium heparin coated tubes from healthy internal donors. 240 μL of blood was transferred to each of the wells of a v-bottom 96 well plate. 30 μL of compound was transferred from intermediate dilution plate, and incubated for 15 min. 30 μL from stimulants was then transferred to blood and mixed thoroughly. Plate was covered with breathable membrane and incubated at 37° C. for overnight (18 h).
On day 2, isotope labeled standard solutions of kynurenine and tryptophan was made in water at 10× concentration and 30 μL was added to the blood at 3 μM final concentration. The assay plates were centrifuged at 300×G for 10 min with no brake to separate plasma from red blood cells. 60 μL of plasma samples was removed without disturbing red blood cells. Plasma was diluted with RPMI in 1:1 ratio and proteins were precipitated out with two volumes of Acetonitrile. The plates were centrifuged at 4000×G for 60 min. 20 μL of supernatant was carefully transferred to a 384 well plate containing 40 μL of 0.1% formic acid in water and analyzed by LC/MS/MS.
LC/MS/MS analyses were performed using Thermo Fisher's LX4-TSQ Quantum Ultra system. This system consists of four Agilent binary high-performance liquid chromatography (HPLC) pumps and a TSQ Quantum Ultra triple quadrupole MS/MS instrument. For each sample, 5 μL were injected onto an Atlantis T3 column (2.1 mm×150 mm, 3 μm particle size) from Waters. The mobile phase gradient pumped at 0.8 mL/min was used to elute the analytes from the column at 25 EC. The elution started at 0% B increasing linearly to 25% B at 6.5 min, holding at 25% for 1 min, re-equilibrating to 10 min. Mobile phase A consisted of 0.1% formic acid in water. Mobile phase B consisted of 0.1% of formic acid in acetonitrile. Data were acquired in positive mode using a HESI interface. The operational parameters for the TSQ Quantum Ultra instrument were a spray voltage of 4000 V, capillary temperature of 380° C., vaporizer temperature 400° C., shealth gas 60 arbitrary units, Aux gas 20 arbitrary units, tube lens 85 and collision gas 1.2 mTorr. SRM chromatograms of kynurenine (Qi: 209.2>Q3:94.0) and internal standard (Qi: 215.3>Q3:98.2) were collected for 90 sec. The peak area was integrated by Xcalibur Quan software. The ratios between the kynurenine generated in the reaction and 2D6-Kynurenine spiked-in internal standard were used to generate percentage inhibition and IC50 values. Compounds were titrated and IC50's were calculated by 4 parameter sigmoidal curve fitting formula.
The biological activity data of selective compounds using the IDO1 human whole blood assay described above are summarized in the table below.

IDO1 [2] = biological target: T1, IDO1; assay: IDO1 Cellular Assay in HeLa Cells Stimulated with IFNγ; format: cell-based; conditions: IFNγ 100 ng/mL, 300 uM L-tryptophan, about 48 hours, fluorescence readout, read-out: IDO1 HELA Cell Assay, IC50

Structure (SMILES) | pIC50 (IDO1 [1]) | pIC50 (IDO1 [2])
Cc1ccccc1C1CCN(C(=O)Cn2nc(C(=O)N3C[C@@H](C)O[C@@H](C)C3)c3c2CCC3)CC1 [Example 62, 2-(3-((2S,6R)-2,6-dimethylmorpholine-4-carbonyl)-5,6-dihydrocyclopenta[c]pyrazol-1(4H)-yl)-1-(4-(o-tolyl)piperidin-1-yl)ethan-1-one] | 6.32 | 8.01
Cc1cccc(C2CCN(C(=O)Cn3nc(C(=O)N4C[C@@H](C)O[C@@H](C)C4)c4c3CCC4)CC2)c1 [Example 65, 2-(3-((2S,6R)-2,6-dimethylmorpholine-4-carbonyl)-5,6-dihydrocyclopenta [c]pyrazol-1(4H)-yl)-1-(4-(m-tolyl)piperidin-1-yl)ethanone] | 6.19 | 7.80
Cc1cc(C2CCN(C(=O)Cn3nc(C(=O)N4C[C@@H](C)O[C@@H](C)C4)c4c3CCC4)CC2)ccc1Cl [Example 81, 1-[4-(4-chloro-3-methylphenyl)piperidin-1-yl]-2-{3-[(2R,6S)-2,6-dimethylmorpholine-4-carbonyl]-5,6-dihydrocyclopenta[c]pyrazol-1(4H)-yl}ethan-1-one] | 5.88 | 8.54
Cc1c(Cl)cccc1C1CCN(C(=O)Cn2nc(C(=O)N3C[C@@H](C)O[C@@H](C)C3)c3c2CCC3)CC1 [Example 82, 1-[4-(3-chloro-2-methylphenyl)piperidin-1-yl]-2-{3-[(2R,6S)-2,6-dimethylmorpholine-4-carbonyl]-5,6-dihydrocyclopenta[c]pyrazol-1(4H)-yl}ethan-1-one] | 6.36 | 8.46
Cc1c(C2CCN(C(=O)Cn3nc(C(=O)N4C[C@@H](C)O[C@@H](C)C4)c4c3CCC4)CC2)cccc1C(F)(F)F [Example 83, 2-{3-[(2R,6S)-2,6-dimethylmorpholine-4-carbonyl]-5,6-dihydrocyclopenta[c]pyrazol-1(4H)-yl}-1-{4-[2-methyl-3-(trifluoromethyl)phenyl]piperidin-1-yl}ethan-1-one] | 5.73 | 8.38
Cc1c(F)ccc(C2CCN(C(=O)Cn3nc(C(=O)N4C[C@@H](C)O[C@@H](C)C4)c4c3CCC4)CC2)c1C [Example 172, 2-{3-[(2R,6S)-2,6-dimethylmorpholine-4-carbonyl]-5,6-dihydrocyclopenta[c]pyrazol-1(4H)-yl}-1-[4-(4-fluoro-2,3-dimethylphenyl)piperidin-1-yl]ethan-1-one] | 6.36 | 8.77
Cc1c(F)cccc1C1CCN(C(=O)Cn2nc(C(=O)N3C[C@@H](C)O[C@@H](C)C3)c3c2CCC3)CC1 [Example 173, 2-{3-[(2R,6S)-2,6-dimethylmorpholine-4-carbonyl]-5,6-dihydrocyclopenta[c]pyrazol-1(4H)-yl}-1-[4-(3-fluoro-2-methylphenyl)piperidin-1-yl]ethan-1-one] | 6.57 | 8.19

Results, then the compound that gave them:

pIC50 (IDO1 [1]) | pIC50 (IDO1 [2]) | Structure (SMILES)
7.07 | 8.74 | Cc1cccc(C2CCN(C(=O)Cn3nc(C(=O)N4CC[C@H](O)[C@@H](F)C4)c4c3CCC4)CC2)c1C [Example 37, 1-(4-(2,3-dimethylphenyl)piperidin-1-yl)-2-(3-((3S,4S)-3-fluoro-4-hydroxypiperidine-1-carbonyl)-5,6-dihydrocyclopenta[c]pyrazol-1(4H)-yl)ethanone]
6.52 | 8.43 | Cc1cccc(C2CCN(C(=O)Cn3nc(C(=O)N4CCN(C(=O)CO)CC4)c4c3CCCC4)CC2)c1C [Example 42, 1-(4-(2,3-dimethylphenyl)piperidin-1-yl)-2-(3-(4-(2-hydroxyacetyl)piperazine-1-carbonyl)-4,5,6,7-tetrahydro-1H-indazol-1-yl)ethanone]
6.72 | 8.26 | Cc1cccc(C2CCN(C(=O)Cn3nc(C(=O)N4CCO[C@H](CO)C4)c4c3CCC4)CC2)c1C [Example 43, (S)-1-(4-(2,3-dimethylphenyl)piperidin-1-yl)-2-(3-(2-(hydroxymethyl)morpholine-4-carbonyl)-5,6-dihydrocyclopenta[c]pyrazol-1(4H)-yl) ethanone]
6.14 | 8.14 | Cc1cccc(C2CCN(C(=O)Cn3nc(C(=O)N4CC[C@H](O)[C@H](F)C4)c4c3CCC4)CC2)c1C [Example 44, 1-(4-(2,3-dimethylphenyl)piperidin-1-yl)-2-(3-((3R,4S)-3-fluoro-4-hydroxypiperidine-1-carbonyl)-5,6-dihydrocyclopenta[c]pyrazol-1(4H)-yl)ethanone]
6.31 | 8.46 | Cc1cccc(C2CCN(C(=O)Cn3nc(C(=O)N4CC[C@@H](O)[C@@H](F)C4)c4c3CCC4)CC2)c1C [Example 60, 1-(4-(2,3-dimethylphenyl)piperidin-1-yl)-2-(3-((3S,4R)-3-fluoro-4-hydroxypiperidine-1-carbonyl)-5,6-dihydrocyclopenta[c]pyrazol-1(4H)-yl)ethanone]
6.53 | 8.96 | Cc1cccc(C2CCN(C(=O)Cn3nc(C(=O)N4C[C@@H](C)O[C@@H](C)C4)c4c3CCC4)CC2)c1C [Example 64, 2-(3-((2S,6R)-2,6-dimethylmorpholine-4-carbonyl)-5,6-dihydrocyclopenta [c]pyrazol-1(4H)-yl)-1-(4-(2,3-dimethylphenyl)piperidin-1-yl) ethanone]
